Source: patent US20070274947A1, “Antisense Oligonucleotides Directed to Ribonucleotide Reductase R1 and Uses Thereof in the Treatment of Cancer” (priority 2003, published 2007)
“Also recorded” adds a separate entry of the source.

Legend:
[1] = Acute intravenous toxicity study in rats (24-hour infusion); assay type: in vivo, Sprague-Dawley rats; conditions: rat
Excerpt: The purpose of this study was to assess the adverse effects of SEQ ID NO:1 when administered as a single intravenous dose to Sprague-Dawley rats. […] Parameters assessed included mortality, clinical observations, body weight and food consumption assessment, clinical pathology and urinalysis measurements, and gross examination at necropsy.

[2] = test system: DU145 human prostatic cancer cells; assay: DU145 prostate tumor growth in SCID mice; assay type: in vivo
Description: DU145 human prostatic cancer cells (1×10^7 cells in 100 μl of PBS) were subcutaneously injected into the right flank of 6-7 week old male SCID mice. After the size of the tumors reached an approximate volume of 50 mm^3, 13 days post tumor cell injection, SEQ ID NO:1 was administered by bolus infusion into the tail vein every other day at 10 mg/kg. Control animals received saline alone for the same period. Treatments lasted for 30 days thereafter. Antitumor activities were estimated by the inhibition of tumor volume, which was measured with a caliper on nine different occasions over 30-day period. Each point represents mean tumor volume calculated from 5 animals per experimental group.
In both experiments, DU145 human prostatic cancer cells (1×10^7 cells in 100 μl of PBS) were subcutaneously injected into the right flank of 6-7 weeks old male SCID mice. After the size of tumor reached an approximate volume of 50 mm^3, 13 (upper panel) or 11 (lower panel) days post tumor cell injection, SEQ ID NO:1 was administered by bolus infusion into the tail vein every other day at 10 mg/kg 15 times (upper panel) or 14 times (lower panel), respectively. Control animals received saline alone for the same period. Antitumor effect of SEQ ID NO:1 was further compared to that of mitoxantrone (novantrone®) alone or in combination. Mitoxantrone was administered intravenously once at the beginning of the treatments at a dose of 2 mg/kg (upper panel) or once a week for four weeks at a reduced dose of 0.8 mg/kg (lower panel). All treatments were stopped at day 42 (upper panel) or 38 (lower panel), respectively. A day after the last treatment, tumors were excised from the animals and their weights were measured.

R1 mRNA [3] = assay: R1 mRNA levels in HT-29 colon tumors in nude mice (Northern blot); assay type: in vivo, human; conditions: day 16, 10 mg/kg every other day, two independent HT-29 tumors
Description: Effects of SEQ ID NO:1 administration on R1 mRNA levels in HT-29 colon tumors in nude mice were investigated.
(§1) For determination of mRNA levels in tumors by Northern Blot, total RNA was prepared from excised tumors using TRIzol reagent (GIBCO BRL). Northern blot analysis was performed as previously described (Hurta and Wright, 1995). RNA was subjected to electrophoresis through 1% formaldehyde agarose gels followed by transfer to nylon membranes. Blots were hybridized in the presence of a R1 fragment (McClarty et al, 1987). Glyceraldehyde-3-phosphate dehydrogenase (GAPDH) mRNA levels were simultaneously probed for RNA loading controls.
The results provide strong evidence that SEQ ID NO:1 is reaching the tumor site in vivo and is acting by an antisense mechanism of action.

R1 mRNA [4] = assay: Northern blot of R1 mRNA in MDA-MB-231 cells; assay type: cell-based, human; conditions: 0.2 μM, four hours with Lipofectin, 16 hours recovery
Description: as §1, with “Total” for “For determination of mRNA levels in tumors by Northern Blot, total”, “isolated” for “prepared from excised tumors”, “BRL) after cells were treated with 0.2 μM SEQ ID NO:1 for four hours in the presence of cationic lipid (Lipofectin reagent, GIBCO BRL), washed with PBS, and incubated for 16 hours to recover in normal medium containing 10% FBS.” for “BRL).”

R1 protein = assay: Western blot of R1 protein in MDA-MB-231 cells; assay type: cell-based, human; conditions: SEQ ID NO:1 0.025-0.2 μM, controls 0.2 μM
Description: MDA-MB-231 human breast adenocarcinoma cells were treated with increasing concentrations (0.025-0.2 μM) of SEQ ID NO:1, 0.2 μM of a scrambled control analogue of SEQ ID NO:1 (SEQ ID NO:1 Scr) or a mismatched control analogue of SEQ ID NO:1 (SEQ ID NO:1 Mis) that contains four base changes. Cells were then washed and fresh media were added. Cells were harvested 8-18 hours later for protein extractions. Aliquots of cell extracts were heated at 100° C. for 5 minutes and then analyzed on sodium dodecyl sulfate-polyacrylamide gels (Choy et al., 1988). Proteins were then transferred to membranes. Membranes were blocked and then incubated with anti-R1 antibody for 1 hour at room temperature. Membranes were washed three times in cold TBS-Tween buffer followed by incubation for 30 minutes to 1 hour at room temperature in the presence of a second antibody (goat anti-rabbit immunoglobulin linked with horseradish peroxidase). Blots were washed and bound antibodies were detected by development of the […] reaction (Fan et al., 1996).

human tumors = assay: In vivo primary pharmacology, human tumors in mouse models
[5] = cynomolgus monkey, in vivo

For “5′-CTCTAGCGTCTTAAAGCCGA-3′ (CTCTAGCGTCTTAAAGCCGA; chemistry not given here) [SEQ ID NO:1]”, the toxicological effects ([1]; 24-hour continuous i.v. infusion, 40 mg/kg/day) was “toxicological effects were not observed”, the “test article related effects” value ([1]; 24-hour continuous i.v. infusion, 60, 80 and 90 mg/kg) was “some test article related effects were found” and the “inhibition of tumor volume” value ([2]; SCID mice, 10 mg/kg i.v. every other day, 30 days, vs saline, 10 mg/kg) was “strong inhibitory effects”. The “tumor weight / tumor growth” value ([2]; upper panel FIG. 2, SEQ ID NO:1 10 mg/kg every other day 15 times, mitoxantrone 2 mg/kg i.v. once, vs saline) was “significant delay of tumor growth”, the “delay in tumor growth compared with mitoxantrone alone” value ([2]; upper panel FIG. 2, mitoxantrone 2 mg/kg once) was “superior to the inhibitory effects observed with mitoxantrone alone” and the “R1 mRNA levels in tumors” value (R1 mRNA [3]) was “marked reduction; also recorded: decreased R1 mRNA levels”. The “R1 mRNA level” value (R1 mRNA [4]) was “specifically decreases R1 mRNA; also recorded: significant decrease; also recorded: decreased R1 mRNA levels”, the R1 protein expression (R1 protein) was “specifically decreases R1 protein expression in a dose-dependent manner; also recorded: decreased R1 protein expression in a dose-dependent manner” and the “efficacy in tumor xenograft experiments” value (human tumors; SCID mice that are T and B cell deficient) was “highly effective”. For the same substance, the “growth of human tumors in mouse models” value (human tumors; doses of 1.0 to 10 mg/kg/day) was “significantly inhibited the growth”, the “elimination t1/2” value [5] was 2.2 to 2.5 h and the “plasma Cl” value [5] was 0.762 to 1.945 mL/min/kg. For the same substance, the “time to Css” value [5] was “consistently achieved at the first or second blood collection timepoint”.
